Legend:
Assay type in all cases: cell-based
[1] = system: human precision cut IPF lung slices; assay: Secreted markers (ELISA) in precision cut IPF lung slices in culture; details: CRV431 applied at 5 μM; 4 daily treatment intervals; relative to DMSO vehicle
Procedure: (§1) This example describes a study conducted with precision cut lung slices. Precision cut slices from explanted lung tissue from a patient with biopsy-confirmed, idiopathic pulmonary fibrosis (IPF) were cultured for 6 days. Treatments were applied to 6 replicate slices per treatment on Day 2 of culture and replaced daily on Days 3, 4, and 5 of culture.
For generating the results of secreted marker (% daily average change) shown in FIG. 6A, spent medium (24-hr intervals) was collected on Days 3, 4, 5, and 6 to measure secretion by ELISA of six markers of inflammation and fibrosis: monocyte chemoattractant protein (MCP-1), interleukin-6 (IL-6), matrix metalloproteinase-7 (MMP-7), tissue inhibitor of metalloproteinase-1 (TIMP1), hyaluronic acid, and collagen 1α1. The mean level of secretion from 6 replicate slices for each drug treatment was expressed as a percentage change relative to DMSO vehicle treatment for each day of treatment, and then the mean percentage change from 4 daily treatment intervals was calculated.

[2] = system: human precision cut IPF lung slices; assay: Gene expression (RT-PCR) in precision cut IPF lung slices in culture; details: CRV431 applied at 5 μM; Day 6 of culture after 4 days of treatment; β actin reference
Procedure: as §1
For generating the results of gene expression shown in FIG. 6B, RNA was isolated from 6 pooled lung slices per treatment on Day 6 of culture following 4 days of drug or vehicle treatment and evaluated by reverse transcription-polymerase chain reaction (RT-PCR) for 6 markers of inflammation and fibrosis: MCP-1, IL-6, TGFβ TIMP1, collagen 1α1, and α-smooth muscle actin (αSMA). β actin was used as a reference gene to calculate relative levels of each target gene RNA.

[3] = system: human precision cut liver slices (PCLS); assay: PCLS biomarker secretion (ELISA); details: CRV431 applied at 5 μM; markers MCP-1, IL-6, TIMP1, hyaluronic acid, fibronectin, collagen 1α1
Procedure: (§2) PCLS were obtained from 5 human donors who underwent resection of liver cancer. Replicate slices were collected from healthy margins of the resections and cultured for 4 or 6 days depending on the experimental protocol. In the Nonstimulation Protocol slices were cultured for 6 days and treated for the entire period with DMSO vehicle or 5 μM CRV431. In the Stimulation Protocol slices were rested for 1 day and then administered the cytokines, TGFβ and PDGF-BB, for 3 days to stimulate inflammation and fibrosis. DMSO vehicle, CRV431 (1 and 5 μM), Alk5i (10 μM), obeticholic acid (5 μM), elafibranor (5 μM), resmetirom ([…]), and Aramchol (5 μM) were administered individually as drug treatments in the Stimulation Protocol concurrent with TGFβ+PDGF-BB. Culture medium treatments were replaced daily.
(§3) Four types of evaluations were conducted on the PCLS: (a) secretion of inflammation and fibrosis biomarkers into the culture medium, (b) histological staining and quantitation of Sirius red as a measure of tissue fibrosis, (c) gene expression of inflammation and fibrosis biomarkers by RT-PCR, and (d) RNA sequencing (RNA-Seq) of the complete transcriptome. Each of the four types of evaluation is described below: • (a) Biomarker secretion. Spent culture medium was collected daily from duplicate slices for each treatment. ELISAs were used to quantify secretion of monocyte chemoattractant protein (MCP-1), interleukin-6 (IL-6), tissue inhibitor of metalloproteinase-1 (TIMP1), hyaluronic acid, fibronectin, and collagen 1α1. For each donor the mean level of biomarker secretion in each treatment group was expressed as a percentage change relative to DMSO vehicle, the percentages averaged for all donors, and finally the mean daily percentage change calculated from all days of evaluation. […] Sirius red was quantified morphometrically in the histological sections as the percentage area with Sirius red staining in 10 sections from each treatment. In the Nonstimulation Protocol the quantity of Sirius red staining was expressed relative to the vehicle group. In the Stimulation Protocol the quantity of Sirius red staining was expressed relative to nonstimulated PCLS (0%) and TGFβ+PDGF-BB-stimulated+vehicle PCLS (100%). […] RNA was isolated from duplicate liver slices per treatment at the end of the experiments and evaluated by RT-PCR for 5 markers of inflammation and fibrosis: MCP-1, IL-6, TIMP1, αSMA, and collagen 1α1. β actin was used as a reference gene to calculate relative levels of each target gene RNA. […] RNA sequencing of the complete transcriptome (30 million reads per sample) was conducted on vehicle and 5 μM CRV431 treatment groups from 3 donors both from the Nonstimulation and Stimulation Protocols. […]

[4] = system: human precision cut liver slices (PCLS); assay: PCLS gene expression by RT-PCR; details: CRV431 applied at 5 μM; markers MCP-1, IL-6, TIMP1, αSMA, collagen 1α1
Procedure: as §2, §3

COC(=O)c1ccc2c(c1)NC(=O)/C2=C(\Nc1ccc(N(C)C(=O)CN2CCN(C)CC2)cc1)c1ccccc1 [nintedanib, reference compound]
decreased: mean daily secretion of all markers (MCP-1, IL-6, MMP-7, TIMP1, hyaluronic acid, collagen 1α1) [1] | gene expression of all markers (MCP-1, IL-6, TGFβ, TIMP1, collagen 1α1, αSMA) [2] | mean daily secretion of all markers [3] | gene expression of all markers [4]

Cc1ccc(=O)n(-c2ccccc2)c1 [pirfenidone, reference compound]
decreased: mean daily secretion of all markers (MCP-1, IL-6, MMP-7, TIMP1, hyaluronic acid, collagen 1α1) [1] | gene expression of all markers (MCP-1, IL-6, TGFβ, TIMP1, collagen 1α1, αSMA) [2] | mean daily secretion of all markers [3] | gene expression of all markers [4]

— patent US12409206B2, “Use of cyclosporine analogues for treating fibrosis” (Hepion Pharmaceuticals, Inc., priority 2020, dated 2025)
